Test results: patent US12157730B2, “Heteroaryl derivative, method for producing same, and pharmaceutical composition comprising same as effective component” (VORONOI INC., priority 2019, dated 2024)

target: T1, Ba/F3 cell EGFR Exon20 ins NPH (Homo sapiens, UniProt P00533, INS773NPH); test: Ba/F3 cell proliferation suppression, EGFR Exon20 ins NPH; format: cell-based; conditions: GI50 class; Ba/F3 cell line with NPH inserted at Exon20 of EGFR; 72 hours
T1 construct: expressed in transfected cells; host or cells: Ba/F3
How it was run: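 72 h compound exposure, 0.3 nM–50 um (12 points, 3:1 dilution in DMSO); viability by CellTiter-Glo luminescence. Ba/F3 medium: RPMI-1640, 10% FBS, 5 ng/ml IL-3, 1 ug/ml puromycin for transduced cells. GI50 vs control, n=3.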

Ba/F3 (NPH) Activity	SMILES
B (50 nM ≤ GI50 < 500 nM)	C=CC(=O)Nc1cc(Nc2cc(N3OCC[C@@H]3c3cc(F)ccc3F)ncn2)c(OC)cc1N1CC[C@H](N2CCOCC2)C1 [compound 302, N-(5-((6-((R)-3-(2,5-difluorophenyl)isoxazolidine-2-yl)pyrimidine-4-yl)amino)-4-methoxy-2-((S)-3-morpholinopyrolidine-1-yl)phenyl)acrylamide]
C (500 nM ≤ GI50 < 5000 nM)	C=CC(=O)Nc1cc(Nc2cc(N3OCC[C@H]3c3c(F)cccc3F)ncn2)c(OC)cc1N1CCC(N2CCC(N(C)C)CC2)CC1 [compound 369, N-(5-((6-((S)-3-(2,6-difluorophenyl)isoxazolidine-2-yl)pyrimidine-4-yl)amino)-2-(4-(dimethylamino)-[1,4'-bipiperidine]-1'-yl)-4-methoxyphenyl) acrylamide]
A (GI50 < 50 nM)	C=CC(=O)Nc1cc(Nc2cc(N3OCC[C@@H]3c3cccc(Cl)c3F)ncn2)c(OC)cc1N1CCC(N2C[C@H]3CC[C@@H](C2)O3)CC1 [compound 322, N-(2-(4-((1R,5S)-8-oxa-3-azabicyclo[3.2.1]octan-3-yl)piperidine-1-yl)-5-((6-((R)-3-(3-chloro-2-fluorophenyl)isoxazolidine-2-yl)pyrimidine-4-yl)amino)-4-methoxyphenyl) acrylamide]
A (GI50 < 50 nM)	C=CC(=O)Nc1cc(Nc2cc(N3OCC[C@@H]3c3cccc(Cl)c3C)ncn2)c(OC)cc1N1CCC(N2CCN(C(C)C)CC2)CC1 [compound 580, N-(5-((6-((R)-3-(3-chloro-2-methylphenyl)isoxazolidine-2-yl)pyrimidine-4-yl)amino)-2-(4-(4-isopropylpiperazine-1-yl)piperidine-1-yl)-4-methoxyphenyl) acrylamide]
A (GI50 < 50 nM)	C=CC(=O)Nc1cc(Nc2cc(N3OCC[C@@H]3c3cccc(F)c3)ncn2)c(OC)cc1N1CCN(C(C)=O)CC1 [compound 831, N-(2-(4-acetylpiperazine-1-yl)-5-((6-((R)-3-(3-fluorophenyl)isoxazolidine-2-yl)pyrimidine-4-yl)amino)-4-methoxyphenyl) acrylamide]
A (GI50 < 50 nM)	C=CCN1CCN(C2CCN(c3cc(OC)c(Nc4cc(N5OCC[C@@H]5c5cc(F)cc(Cl)c5)ncn4)cc3NC(=O)C=C)CC2)CC1 [Example 214, N-(2-(4-(4-allylpiperazine-1-yl)piperidine-1-yl)-5-((6-((R)-3-(3-chloro-5-fluorophenyl)isoxazolidine-2-yl)pyrimidine-4-yl)amino)-4-methoxyphenyl) acrylamide]
B (50 nM ≤ GI50 < 500 nM)	C=CC(=O)Nc1cc(Nc2cc(N3OCC[C@@H]3c3ccc(Cl)c(Cl)c3F)ncn2)c(OC)cc1N1CCC(N2CCN(C3COC3)CC2)CC1 [Example 84, N-(5-((6-((R)-3-(3,4-dichloro-2-fluorophenyl)isoxazolidine-2-yl)pyrimidine-4-yl)amino)-4-methoxy-2-(4-(4-(oxetane-3-yl)piperazine-1-yl)piperidine-1-yl)phenyl)acrylamide]
B (50 nM ≤ GI50 < 500 nM)	C=CC(=O)Nc1cc(Nc2cc(N3OCC[C@@H]3c3ccc(Cl)c(F)c3)ncn2)c(OC)cc1N1CCN(C)CC1 [compound 795, N-(5-((6-((R)-3-(4-chloro-3-fluorophenyl)isoxazolidine-2-yl)pyrimidine-4-yl)amino)-4-methoxy-2-(4-methylpiperazine-1-yl)phenyl)acrylamide]

More lines, now with the values behind:

SMILES	Ba/F3 (NPH) Activity
C=CC(=O)Nc1cc(Nc2cc(N3OCC[C@@H]3Cc3cccc(F)c3)ncn2)c(OC)cc1N1CCC(N2CCN(C3CC3)CC2)CC1 [compound 997, N-(2-(4-(4-cyclopropylpiperazine-1-yl)piperidine-1-yl)-5-((6-((S)-3-(3-fluorobenzyl)isoxazolidine-2-yl)pyrimidine-4-yl)amino)-4-methoxyphenyl) acrylamide]	A (GI50 < 50 nM)
C=CC(=O)Nc1cc(Nc2cc(N3OCC[C@@H]3c3cccc(OC)c3)ncn2)c(OC)cc1N1CCC(N2C[C@@H]3C[C@H]2CO3)CC1 [Example 27, N-(2-(4-((1S,4S)-2-oxa-5-azabicyclo[2.2.1]heptane-5-yl)piperidine-1-yl)-4-methoxy-5-((6-((R)-3-(3-methoxyphenyl)isoxazolidine-2-yl)pyrimidine-4-yl)amino)phenyl) acrylamide]	A (GI50 < 50 nM)
C=CC(=O)Nc1cc(Nc2cc(N3OCC[C@@H]3c3cccc(Cl)c3Cl)ncn2)c(OC)cc1N1CCN(CC)CC1 [compound 480, N-(5-((6-((R)-3-(2,3-dichlorophenyl)isoxazolidine-2-yl)pyrimidine-4-yl)amino)-2-(4-ethylpiperazine-1-yl)-4-methoxyphenyl) acrylamide]	A (GI50 < 50 nM)
C=CC(=O)Nc1cc(Nc2cc(N3OCC[C@@H]3c3ccc(Cl)c(F)c3)ncn2)c(OC)cc1N1CCC(N2C[C@@H]3C[C@H]2CN3CC)CC1 [compound 858, N-(5-((6-((R)-3-(4-chloro-3-fluorophenyl)isoxazolidine-2-yl)pyrimidine-4-yl)amino)-2-(4-((1S,4S)-5-ethyl-2,5-diazabicyclo [2.2.1]heptane-2-yl)piperidine-1-yl)-4-methoxyphenyl) acrylamide]	A (GI50 < 50 nM)
C=CC(=O)Nc1cc(Nc2cc(N3OCC[C@@H]3Cc3cccc(Cl)c3Cl)ncn2)c(OC)cc1N(C)CCN(C)C [compound 982, N-(5-((6-((S)-3-(2,3-dichlorobenzyl)isoxazolidine-2-yl)pyrimidine-4-yl)amino)-2-((2-(dimethylamino)ethyl)(methyl)amino)-4-methoxyphenyl) acrylamide]	A (GI50 < 50 nM)
C=CC(=O)Nc1cc(Nc2cc(N3OCC[C@@H]3c3cccc(F)c3F)ncn2)c(OC)cc1N1CCC(N2CC3CCC(C2)N3C2CC2)CC1 [Example 135, N-(2-(4-(8-cyclopropyl-3,8-diazabicyclo[3.2.1]octan-3-yl)piperidine-1-yl)-5-((6-((R)-3-(2,3-difluorophenyl)isoxazolidine-2-yl)pyrimidine-4-yl)amino)-4-methoxyphenyl) acrylamide]	A (GI50 < 50 nM)
C=CC(=O)Nc1cc(Nc2cc(N3OCC[C@@H]3c3ccc(Cl)cc3)ncn2)c(OC)cc1N1CCC(N(C)C)CC1 [compound 805, N-(5-((6-((R)-3-(4-chlorophenyl)isoxazolidine-2-yl)pyrimidine-4-yl)amino)-2-(4-(dimethylamino)piperidine-1-yl)-4-methoxyphenyl) acrylamide]	A (GI50 < 50 nM)
C=CC(=O)Nc1cc(Nc2cc(N3OCC[C@H]3Cc3ccccc3)ncn2)c(OC)cc1N1CCC(N2CCN(C3CC3)CC2)CC1 [compound 956, N-(5-((6-((R)-3-benzylisoxazolidine-2-yl)pyrimidine-4-yl)amino)-2-(4-(4-cyclopropylpiperazine-1-yl)piperidine-1-yl)-4-methoxyphenyl) acrylamide]	C (500 nM ≤ GI50 < 5000 nM)
C=CC(=O)Nc1cc(Nc2cc(N3OCC[C@@H]3c3ccc(F)cc3F)ncn2)c(OC)cc1N(C)CCOC [compound 347, N-(5-((6-((R)-3-(2,4-difluorophenyl)isoxazolidine-2-yl)pyrimidine-4-yl)amino)-4-methoxy-2-((2-methoxyethyl)(methyl)amino)phenyl) acrylamide]	A (GI50 < 50 nM)
